Assay results taken from PMC4853435, “A cell cycle kinase with tandem sensory PAS domains integrates cell fate cues” (Nature Communications, 2016).

Key:
CckA 70–378 (ΔCA-ΔRD) = molecular target: T1, CckA 70–378 (ΔCA-ΔRD) (Caulobacter vibrioides, UniProt A0A0H3C8Q4); test: SPR (Biacore T200, CckA variant amine-coupled to CM5 chip); format: binding; conditions: 50 mM HEPES pH 8, 200 mM KCl, 5 mM MgCl2, 25 °C
T1 construct: residues 70-378 (PAS-A, PAS-B, DHp), His-tagged, E. coli, Ni-NTA; immobilised on SPR chip
T1 sequence (A0A0H3C8Q4 70-378): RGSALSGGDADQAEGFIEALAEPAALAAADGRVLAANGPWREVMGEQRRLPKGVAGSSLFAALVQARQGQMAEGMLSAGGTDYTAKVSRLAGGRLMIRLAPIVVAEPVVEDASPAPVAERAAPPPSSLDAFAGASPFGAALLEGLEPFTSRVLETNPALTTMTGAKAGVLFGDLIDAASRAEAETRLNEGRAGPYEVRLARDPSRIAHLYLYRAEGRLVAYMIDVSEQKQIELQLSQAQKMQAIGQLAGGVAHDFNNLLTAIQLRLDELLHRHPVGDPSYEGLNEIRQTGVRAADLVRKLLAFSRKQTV

CckA 70–691 (WT) = molecular target: T2, CckA 70–691 (WT) (Caulobacter vibrioides, UniProt A0A0H3C8Q4); test: autophosphorylation with [gamma-32P]ATP, nitrocellulose capture, phosphorimaging; format: biochemical
T2 construct: cytosolic region 70-691 (PAS-A, PAS-B, DHp, CA, RD), transmembrane helices removed, N-terminal His6 tag, E. coli, Ni-NTA
T2 sequence (A0A0H3C8Q4 70-691): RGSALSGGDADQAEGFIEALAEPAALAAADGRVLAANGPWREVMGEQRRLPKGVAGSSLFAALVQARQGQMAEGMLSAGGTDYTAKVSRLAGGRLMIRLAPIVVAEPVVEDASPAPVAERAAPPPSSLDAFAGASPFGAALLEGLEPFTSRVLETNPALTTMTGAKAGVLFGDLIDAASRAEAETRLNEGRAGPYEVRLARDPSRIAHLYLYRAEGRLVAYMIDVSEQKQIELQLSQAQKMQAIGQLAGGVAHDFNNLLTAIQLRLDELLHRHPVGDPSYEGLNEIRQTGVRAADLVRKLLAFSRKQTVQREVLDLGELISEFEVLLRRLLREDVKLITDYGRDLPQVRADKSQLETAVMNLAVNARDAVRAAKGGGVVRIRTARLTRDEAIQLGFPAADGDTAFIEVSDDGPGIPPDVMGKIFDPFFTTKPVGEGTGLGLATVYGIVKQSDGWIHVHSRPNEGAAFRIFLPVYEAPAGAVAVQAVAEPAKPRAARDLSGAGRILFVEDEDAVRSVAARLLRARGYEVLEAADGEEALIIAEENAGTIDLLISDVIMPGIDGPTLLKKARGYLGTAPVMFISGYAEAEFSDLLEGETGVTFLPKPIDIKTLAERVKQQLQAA

[1] = molecular target: T3, CckA 197–544 (ΔPAS-A-ΔRD) (Caulobacter vibrioides, UniProt A0A0H3C8Q4); test: SPR (Biacore T200, CckA variant amine-coupled to CM5 chip); format: binding; conditions: 50 mM HEPES pH 8, 200 mM KCl, 5 mM MgCl2, 25 °C
T3 construct: residues 197-544 (PAS-B, DHp, CA), His-tagged, E. coli, Ni-NTA; immobilised on SPR chip
T3 sequence (A0A0H3C8Q4 197-544): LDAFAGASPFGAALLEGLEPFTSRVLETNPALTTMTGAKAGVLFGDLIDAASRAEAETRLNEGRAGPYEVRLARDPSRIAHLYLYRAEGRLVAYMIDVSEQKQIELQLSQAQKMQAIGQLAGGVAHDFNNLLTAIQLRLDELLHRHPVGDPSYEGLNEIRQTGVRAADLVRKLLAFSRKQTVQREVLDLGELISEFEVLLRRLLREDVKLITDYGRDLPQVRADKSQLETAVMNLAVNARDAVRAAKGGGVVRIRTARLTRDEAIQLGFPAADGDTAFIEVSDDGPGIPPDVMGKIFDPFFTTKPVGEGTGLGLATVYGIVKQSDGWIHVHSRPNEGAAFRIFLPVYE

CckA 197–691 (ΔPAS-A) = molecular target: T4, CckA 197–691 (ΔPAS-A) (Caulobacter vibrioides, UniProt A0A0H3C8Q4); test: autophosphorylation with [gamma-32P]ATP, nitrocellulose capture, phosphorimaging; format: biochemical
T4 construct: residues 197-691 (PAS-B, DHp, CA, RD), His-tagged, E. coli, Ni-NTA
T4 sequence (A0A0H3C8Q4 197-691): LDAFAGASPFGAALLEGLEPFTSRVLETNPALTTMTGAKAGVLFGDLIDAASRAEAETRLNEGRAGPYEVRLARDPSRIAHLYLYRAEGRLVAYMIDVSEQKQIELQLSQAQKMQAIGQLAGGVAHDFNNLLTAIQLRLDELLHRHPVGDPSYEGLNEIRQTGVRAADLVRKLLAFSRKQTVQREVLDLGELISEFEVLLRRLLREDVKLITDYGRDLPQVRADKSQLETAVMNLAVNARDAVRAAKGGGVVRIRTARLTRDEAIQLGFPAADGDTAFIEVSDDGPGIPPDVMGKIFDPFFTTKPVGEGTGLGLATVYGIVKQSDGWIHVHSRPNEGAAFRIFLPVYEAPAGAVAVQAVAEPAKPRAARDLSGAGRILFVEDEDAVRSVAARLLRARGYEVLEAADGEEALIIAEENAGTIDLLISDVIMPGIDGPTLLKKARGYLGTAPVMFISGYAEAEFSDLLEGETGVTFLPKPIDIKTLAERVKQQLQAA

CckA 70–544 (ΔRD) = molecular target: T5, CckA 70–544 (ΔRD) (Caulobacter vibrioides, UniProt A0A0H3C8Q4); test: SPR (Biacore T200, CckA variant amine-coupled to CM5 chip); format: binding; conditions: 50 mM HEPES pH 8, 200 mM KCl, 5 mM MgCl2, 25 °C
T5 construct: residues 70-544 (PAS-A, PAS-B, DHp, CA), receiver domain removed, His-tagged, E. coli, Ni-NTA; immobilised on SPR chip
T5 sequence (A0A0H3C8Q4 70-544): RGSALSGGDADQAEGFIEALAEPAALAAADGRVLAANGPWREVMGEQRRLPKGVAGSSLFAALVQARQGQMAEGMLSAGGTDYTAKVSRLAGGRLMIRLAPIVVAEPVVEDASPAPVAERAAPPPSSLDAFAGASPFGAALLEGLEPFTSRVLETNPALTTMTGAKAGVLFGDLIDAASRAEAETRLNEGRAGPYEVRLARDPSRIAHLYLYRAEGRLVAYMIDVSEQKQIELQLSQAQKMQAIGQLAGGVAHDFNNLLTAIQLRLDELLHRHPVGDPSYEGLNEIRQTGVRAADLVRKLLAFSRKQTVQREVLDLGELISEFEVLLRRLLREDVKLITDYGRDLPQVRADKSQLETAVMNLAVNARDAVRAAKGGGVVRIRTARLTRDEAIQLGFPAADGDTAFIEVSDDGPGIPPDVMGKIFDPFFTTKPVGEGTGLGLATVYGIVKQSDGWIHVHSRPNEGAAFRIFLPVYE

[2] = molecular target: T6, CckA 70–295 (ΔDHp-ΔCA-ΔRD) (Caulobacter vibrioides, UniProt A0A0H3C8Q4); test: as above; format: binding; conditions: 50 mM HEPES pH 8, 200 mM KCl, 5 mM MgCl2, 25 °C
T6 construct: residues 70-295 (PAS-A, PAS-B), pJAB41 in pET28b(+), His-tagged, E. coli, Ni-NTA; immobilised on SPR chip
T6 sequence (A0A0H3C8Q4 70-295): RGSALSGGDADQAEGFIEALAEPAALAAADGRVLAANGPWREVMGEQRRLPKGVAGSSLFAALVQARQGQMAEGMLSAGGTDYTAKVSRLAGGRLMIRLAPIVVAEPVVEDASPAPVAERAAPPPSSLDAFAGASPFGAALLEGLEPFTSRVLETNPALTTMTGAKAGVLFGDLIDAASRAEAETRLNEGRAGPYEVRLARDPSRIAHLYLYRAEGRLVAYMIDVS

IC50 (CckA 70–691 (WT)): 27 µM
IC50 (CckA 197–691 (ΔPAS-A)): 22 µM
SMILES: Nc1nc2c(ncn2[C@@H]2O[C@@H]3COP(=O)(O)O[C@H]4[C@@H](O)[C@H](n5cnc6c(=O)[nH]c(N)nc65)O[C@@H]4COP(=O)(O)O[C@H]3[C@H]2O)c(=O)[nH]1 [c-di-GMP]
SPR (Biacore T200, CckA variant amine-coupled to CM5 chip) (CckA 70–378 (ΔCA-ΔRD)): removal of the ATP-binding CA domain resulted in a minor reduction in c-di-GMP binding
SPR (Biacore T200, CckA variant amine-coupled to CM5 chip) [1]: Each construct still displayed concentration dependence in response to c-di-GMP
SPR (Biacore T200, CckA variant amine-coupled to CM5 chip) (CckA 70–544 (ΔRD)): The concentration-dependent response we observed demonstrates that c-di-GMP directly binds CckA
SPR (Biacore T200, CckA variant amine-coupled to CM5 chip) [2]: Each construct still displayed concentration dependence in response to c-di-GMP
